Source: US8410302B2, “Methoxyimino compounds and fungicide composition comprising same” (Kyung Nong Corporation, priority 2007, dated 2013)

Legend:
Erysiphae graminis = experiment: Fungicidal activity against barley powdery mildew (BPM) disease, control value; type: in vivo; conditions: for pest or weed control at 2 ppm / pest or weed control at 10 ppm / pest or weed control at 50 ppm / pest or weed control at 100 ppm: 168 h, read-out: BPM control value (C.V.)
[1] = test system: Pyricularia oryzae Carvara KA301; experiment: whole plant or invertebrate; type: in vivo; conditions: for pest or weed control at 2 ppm / pest or weed control at 10 ppm / pest or weed control at 50 ppm / pest or weed control at 100 ppm: Pyricularia oryzae, read-out: RCB control value (C.V.)
Phytophthora infestans = experiment: whole plant or invertebrate; type: in vivo; conditions: for pest or weed control at 10 ppm / pest or weed control at 50 ppm / pest or weed control at 100 ppm / pest or weed control at 2 ppm: Phytophthora infestans, in Solanum lycopersicum, read-out: TLB control value (C.V.)
Puccinia recondita = experiment: Fungicidal activity against wheat leaf rust (WLR) disease, control value; type: in vivo; conditions: for pest or weed control at 2 ppm / pest or weed control at 10 ppm / pest or weed control at 50 ppm / pest or weed control at 100 ppm: Puccinia recondita, read-out: WLR control value (C.V.)
Rhizoctonia solani AG-1 = experiment: Fungicidal activity against rice sheath blight (RSB) disease, control value; conditions: for pest or weed control at 100 ppm / pest or weed control at 2 ppm / pest or weed control at 10 ppm / pest or weed control at 50 ppm: Rhizoctonia solani, AG1, in Oryza sativa, read-out: RSB control value (C.V.)
Botrytis cinerae = experiment: Fungicidal activity against cucumber gray mold rot (CGM) disease, control value; type: in vivo; conditions: 100 ppm; for pest or weed control at 100 ppm: Botrytis, read-out: CGM control value (C.V.)

SMILES: CO/N=C(/C(=O)OC)c1ccccc1COc1c(C)cccc1C=C(Br)Br [Example 73, methyl-(E)-2-(2-((2-(2,2-dibromovinyl)-6-methylphenoxy)methyl)phenyl)-2-methoxyiminoacetate]
- pest or weed control at 2 ppm (Erysiphae graminis; 2 ppm): 15%
- pest or weed control at 10 ppm (Erysiphae graminis; 10 ppm): 60%
- pest or weed control at 50 ppm (Erysiphae graminis; 50 ppm): 93%
- pest or weed control at 100 ppm (Erysiphae graminis; 100 ppm): 95%
- pest or weed control at 2 ppm [1]: 70%
- pest or weed control at 10 ppm [1]: 90%
- pest or weed control at 50 ppm [1]: 100%
- pest or weed control at 100 ppm [1]: 100%
- pest or weed control at 10 ppm (Phytophthora infestans): 10%
- pest or weed control at 50 ppm (Phytophthora infestans): 90%
- pest or weed control at 100 ppm (Phytophthora infestans): 100%
- pest or weed control at 2 ppm (Puccinia recondita; 2 ppm): 100%
- pest or weed control at 10 ppm (Puccinia recondita; 10 ppm): 100%
- pest or weed control at 50 ppm (Puccinia recondita; 50 ppm): 100%
- pest or weed control at 100 ppm (Puccinia recondita; 100 ppm): 100%
- pest or weed control at 100 ppm (Rhizoctonia solani AG-1): 10%
- pest or weed control at 100 ppm (Botrytis cinerae): 20%

SMILES: CNC(=O)/C(=N/OC)c1ccccc1COc1c(C)cccc1C=C(Br)Br [Example 74, (E)-2-(2-((2-(2,2-dibromovinyl)-6-methylphenoxy)methyl)phenyl)-2-methoxyimino-N-methylacetamide]
- pest or weed control at 2 ppm (Erysiphae graminis; 2 ppm): 92%
- pest or weed control at 10 ppm (Erysiphae graminis; 10 ppm): 100%
- pest or weed control at 50 ppm (Erysiphae graminis; 50 ppm): 100%
- pest or weed control at 100 ppm (Erysiphae graminis; 100 ppm): 100%
- pest or weed control at 2 ppm [1]: 10%
- pest or weed control at 10 ppm [1]: 90%
- pest or weed control at 50 ppm [1]: 100%
- pest or weed control at 100 ppm [1]: 100%
- pest or weed control at 10 ppm (Phytophthora infestans): 80%
- pest or weed control at 50 ppm (Phytophthora infestans): 90%
- pest or weed control at 100 ppm (Phytophthora infestans): 100%
- pest or weed control at 2 ppm (Puccinia recondita; 2 ppm): 90%
- pest or weed control at 10 ppm (Puccinia recondita; 10 ppm): 99%
- pest or weed control at 50 ppm (Puccinia recondita; 50 ppm): 100%
- pest or weed control at 100 ppm (Puccinia recondita; 100 ppm): 100%
- pest or weed control at 2 ppm (Rhizoctonia solani AG-1): 67%
- pest or weed control at 10 ppm (Rhizoctonia solani AG-1): 80%
- pest or weed control at 50 ppm (Rhizoctonia solani AG-1): 90%
- pest or weed control at 100 ppm (Rhizoctonia solani AG-1): 100%
- pest or weed control at 100 ppm (Botrytis cinerae): 35%

SMILES: CO/N=C(/C(=O)OC)c1ccccc1COc1c(OC)ccc(C=C(Br)Br)c1Br [Example 75, methyl-(E)-2-(2-((2-bromo-3-(2,2-dibromovinyl)-6-methoxyphenoxy)methyl)phenyl)-2-methoxyiminoacetate]
- pest or weed control at 2 ppm (Erysiphae graminis; 2 ppm): 92%
- pest or weed control at 10 ppm (Erysiphae graminis; 10 ppm): 98%
- pest or weed control at 50 ppm (Erysiphae graminis; 50 ppm): 100%
- pest or weed control at 100 ppm (Erysiphae graminis; 100 ppm): 100%
- pest or weed control at 2 ppm [1]: 30%
- pest or weed control at 10 ppm [1]: 90%
- pest or weed control at 50 ppm [1]: 100%
- pest or weed control at 100 ppm [1]: 100%
- pest or weed control at 2 ppm (Phytophthora infestans): 70%
- pest or weed control at 10 ppm (Phytophthora infestans): 90%
- pest or weed control at 50 ppm (Phytophthora infestans): 98%
- pest or weed control at 100 ppm (Phytophthora infestans): 100%
- pest or weed control at 2 ppm (Puccinia recondita; 2 ppm): 95%
- pest or weed control at 10 ppm (Puccinia recondita; 10 ppm): 100%
- pest or weed control at 50 ppm (Puccinia recondita; 50 ppm): 100%
- pest or weed control at 100 ppm (Puccinia recondita; 100 ppm): 100%
- pest or weed control at 2 ppm (Rhizoctonia solani AG-1): 65%
- pest or weed control at 10 ppm (Rhizoctonia solani AG-1): 98%
- pest or weed control at 50 ppm (Rhizoctonia solani AG-1): 100%
- pest or weed control at 100 ppm (Rhizoctonia solani AG-1): 100%
- pest or weed control at 100 ppm (Botrytis cinerae): 40%

SMILES: CNC(=O)/C(=N/OC)c1ccccc1COc1c(OC)ccc(C=C(Br)Br)c1Br [Example 76]
- BPM control value (C.V.) (Erysiphae graminis; 2 ppm): 95%
- BPM control value (C.V.) (Erysiphae graminis; 10 ppm): 100%
- BPM control value (C.V.) (Erysiphae graminis; 50 ppm): 100%
- BPM control value (C.V.) (Erysiphae graminis; 100 ppm): 100%
- RCB control value (C.V.) ([1]; 2 ppm): 30%
- RCB control value (C.V.) ([1]; 10 ppm): 90%
- RCB control value (C.V.) ([1]; 50 ppm): 100%
- RCB control value (C.V.) ([1]; 100 ppm): 100%
- TLB control value (C.V.) (Phytophthora infestans; 2 ppm): 70%
- TLB control value (C.V.) (Phytophthora infestans; 10 ppm): 90%
- TLB control value (C.V.) (Phytophthora infestans; 50 ppm): 98%
- TLB control value (C.V.) (Phytophthora infestans; 100 ppm): 100%
- WLR control value (C.V.) (Puccinia recondita; 2 ppm): 95%
- WLR control value (C.V.) (Puccinia recondita; 10 ppm): 100%
- WLR control value (C.V.) (Puccinia recondita; 50 ppm): 100%
- WLR control value (C.V.) (Puccinia recondita; 100 ppm): 100%
- RSB control value (C.V.) (Rhizoctonia solani AG-1; 2 ppm): 65%
- RSB control value (C.V.) (Rhizoctonia solani AG-1; 10 ppm): 98%
- RSB control value (C.V.) (Rhizoctonia solani AG-1; 50 ppm): 100%
- RSB control value (C.V.) (Rhizoctonia solani AG-1; 100 ppm): 100%
- CGM control value (C.V.) (Botrytis cinerae): 45%

SMILES: CO/N=C(/C(=O)OC)c1ccccc1COc1ccc(C=C(Br)Br)cc1Br [Example 77, methyl-(E)-2-(2-((2-bromo-4-(2,2-dibromovinyl)phenoxy)methyl)phenyl)-2-methoxyiminoacetate]
- pest or weed control at 2 ppm (Erysiphae graminis; 2 ppm): 90%
- pest or weed control at 10 ppm (Erysiphae graminis; 10 ppm): 100%
- pest or weed control at 50 ppm (Erysiphae graminis; 50 ppm): 100%
- pest or weed control at 100 ppm (Erysiphae graminis; 100 ppm): 100%
- pest or weed control at 2 ppm [1]: 30%
- pest or weed control at 10 ppm [1]: 90%
- pest or weed control at 50 ppm [1]: 100%
- pest or weed control at 100 ppm [1]: 100%
- pest or weed control at 2 ppm (Phytophthora infestans): 70%
- pest or weed control at 10 ppm (Phytophthora infestans): 90%
- pest or weed control at 50 ppm (Phytophthora infestans): 98%
- pest or weed control at 100 ppm (Phytophthora infestans): 100%
- pest or weed control at 2 ppm (Puccinia recondita; 2 ppm): 95%
- pest or weed control at 10 ppm (Puccinia recondita; 10 ppm): 100%
- pest or weed control at 50 ppm (Puccinia recondita; 50 ppm): 100%
- pest or weed control at 100 ppm (Puccinia recondita; 100 ppm): 100%
- pest or weed control at 2 ppm (Rhizoctonia solani AG-1): 65%
- pest or weed control at 10 ppm (Rhizoctonia solani AG-1): 98%
- pest or weed control at 50 ppm (Rhizoctonia solani AG-1): 100%
- pest or weed control at 100 ppm (Rhizoctonia solani AG-1): 100%
- pest or weed control at 100 ppm (Botrytis cinerae): 70%
